Laboratory results taken from ChEMBL document CHEMBL5608141, “Identification of compartment-specific drug sensitivities in CRC organoid-stroma co-cultures” (2024).

Key:
Format in all cases: functional, Homo sapiens
Set-up in all cases: dose or concentration left out as unconfirmed
[1] = tested on: Colon cancer organoid; test: Identification of compartment-specific drug sensitivities in O06 CRC organoid-stroma F06 CAF co-cultures. Organoid is transduced with Lucferase2-P2A-EGFP lentivirus, fibroblast with Renilla-dsRed lentivirus. Dual-Glo Luciferase assay is used to report viability data.
[2] = tested on: Colon cancer organoid; test: Identification of compartment-specific drug sensitivities in O14 CRC organoid-stroma F14 CAF co-cultures. Organoid is transduced with Lucferase2-P2A-EGFP lentivirus, fibroblast with Renilla-dsRed lentivirus. Dual-Glo Luciferase assay is used to report viability data.
[3] = tested on: Colon cancer organoid; test: Identification of compartment-specific drug sensitivities in O20 CRC organoid-stroma F20 CAF co-cultures. Organoid is transduced with Lucferase2-P2A-EGFP lentivirus, fibroblast with Renilla-dsRed lentivirus. Dual-Glo Luciferase assay is used to report viability data.
[4] = Transduced with Lucferase2-P2A-EGFP lentivirus
[5] = Transduced with Renilla-dsRed lentivirus

| SMILES | Cell Viability [1, 4] [%] | Cell Viability [1, 5] [%] | Cell Viability [2, 4] [%] | Cell Viability [2, 5] [%] | Cell Viability [3, 4] [%] | Cell Viability [3, 5] [%] |
| --- | --- | --- | --- | --- | --- | --- |
| N#CN1CC[C@H](C(=O)Nc2nc3c(s2)CN(C(=O)CN=[N+]=[N-])CC3)C1 [8RK64] | 104.648 | 104.354 | 81.1298 | 93.9024 | 67.6209 | 105.29 |
| N#CN1CC[C@@H](C(=O)Nc2nc3c(s2)CN(C(=O)CN=[N+]=[N-])CC3)C1 [JYQ88] | 72.1963 | 58.5555 | 68.7487 | 88.1605 | 64.1943 | 84.2967 |
| O=C(O)c1ccc2c(c1)nc(Nc1cccc(Cl)c1)c1ccncc12 [SILMITASERTIB] | 108.166 | 80.6873 | 116.96 | 107.599 | 158.324 | 81.7658 |
| Cl.Cl.Cl.c1ccc(N2CCN(Cc3nc4ccccc4[nH]3)CC2)nc1 | 46.7197 | 192.419 | 99.1029 | 116.587 | 41.4322 | 124.541 |
| O=C(NNS(=O)(=O)c1ccccc1F)c1cc(F)cc(-c2ccccn2)c1 [WM-1119] | 97.0333 | 108.11 | 29.5498 | 87.8305 | 69.0433 | 152.012 |
| Cc1cc(C)cc([C@@H]2c3cc(C)ccc3NC(=O)CN2C(=O)c2ccc(Br)s2)c1 | 107.168 | 464.523 | 110.484 | 405.65 | 135.909 | 541.943 |
| COc1cc(Nc2nccc(-c3cnn4nc(OC)ccc34)n2)cc(C(F)(F)F)c1 | 29.547 | 143.538 | 7.4245 | 53.4313 | 11.0854 | 189.711 |
| CC(=O)c1cc(-c2ccccc2OCC2CC2)c2ncccn12 | 107.249 | 181.775 | 107.478 | 95.946 | 91.2961 | 121.201 |
| Cc1cc(CN)cc(C)c1-c1ncn(C)c1-c1ccnc2cc(F)ccc12.Cl | 105.057 | 123.721 | 138.136 | 105.376 | 144.981 | 87.6481 |
| CC(=O)C1=C(C)N(c2cccc(C(F)(F)F)c2)C(=O)N[C@@H]1c1ccc(C#N)nc1 [BAY-678] | 95.8481 | 136.382 | 146.251 | 119.353 | 140.099 | 133.591 |
| COc1c(C)cc(NC(=O)c2nn(Cc3ccc(F)cc3)c3c2CN(C(=O)c2ccc[nH]2)C[C@]3(C)C(N)=O)cc1C | 66.5012 | 112.674 | 104.772 | 92.7757 | 107.405 | 95.1299 |
| CCCCNNC(=O)c1ccc(Br)cc1 | 113.204 | 110.004 | 96.2748 | 91.9269 | 131.97 | 114.511 |
| Nc1nc(NCc2ccccc2)nc(-c2cccc(CO)c2)n1 [ZINC32547799] | 97.3324 | 116.001 | 98.7801 | 87.8082 | 125.25 | 66.6285 |
| COc1cc(-c2cn([C@H]3CCc4ccccc4N(CC(F)(F)F)C3=O)nn2)ccc1-n1ccc(C)n1 | 66.2416 | 74.3796 | 96.3015 | 79.1491 | 70.0794 | 119.033 |
| Clc1cc2c(NC3CCCC3)nnc(-c3ccncc3)c2cc1Cl | 131.765 | 133.642 | 104.198 | 96.8835 | 149.848 | 128.6 |
| O=C(c1ccc(F)c(F)c1Nc1ccc(I)cc1F)N1CC(O)([C@@H]2CCCCN2)C1 [COBIMETINIB] | 5.143 | 42.4292 | 13.8076 | 23.8651 | 4.065 | 77.761 |
| O=C(NCc1ncc(C(F)(F)F)cc1Cl)c1ccc2c(c1)C1(CCS(=O)(=O)CC1)[C@@H](C1CC1)N2S(=O)(=O)c1ccc(F)cc1 [BAY-786] | 81.2723 | 52.1511 | 85.8201 | 92.0831 | 102.274 | 106.984 |
| Nc1ccc(C(=O)Nc2cccc(-c3nc(N4CCOCC4)c4oc5ncccc5c4n3)c2)cn1 | 78.745 | 81.5262 | 65.9749 | 77.6378 | 141.773 | 75.1771 |
| Cc1c(C(=O)Nc2ccc(Oc3ccnc4[nH]cc(-c5ccccc5)c34)c(F)c2)c(=O)n(-c2ccc(F)cc2)n1C | 73.6786 | 56.2803 | 62.1416 | 28.9447 | 225.47 | 22.9382 |
